Measurements reported in patent publication US5470877A, “Uses of perillic acid methyl ester” (Wisconsin Alumni Research Foundation, priority 1994, dated 1995).
Where two headings read alike, the source gives them in different places.

What was measured:
21-26 kDa proteins = experiment: Protein isoprenylation inhibition in NIH3T3 cells (SDS-PAGE fluorography); format: cell-based, mouse
Procedure: "Isoprenylation" is the addition of a multiple of the 5 carbon isoprene unit to a protein. Our experiments in isoprenylation are reported at Crowell, et al. 1991, J. Biol. Chem. 266:17679-17685. To test whether a specific monoterpene affects isoprenylation of proteins in cells, […] were incubated with a radioactive isoprene precursor and 0-5 mM of the test monoterpene and then subjected to SDS-PAGE. Because they carried a radioactive label, isoprenylated proteins were visualized by fluorography. As a control, cells were incubated without the monoterpene.
Cells were harvested after trypsin treatment, washed twice with phosphate-buffered saline, suspended in electrophoresis sample buffer (Laemmli, U.K., 1970, Nature 227:680-685), and either analyzed immediately or stored at -20° C. Whole cell extracts were analyzed by SDS-PAGE on 16-cm×18-cm×0.75-mm gels by the method of Laemmli (supra). The acrylamide concentrations were 5% for the stacking gel and 12% for the separating gel. Gels were stained with Coomassie Brilliant Blue, equilibrated for 20 min in Amplify (Amersham Corp.) fluorographic reagent, dried under vacuum at 65° C., and exposed to preflashed Kodak X-Omat AR film as described by Laskey and Mills (1975, Eur. J. Biochem, 56:335-341). Some fluorograms were analyzed further by densitometry. Where indicated, gels were sliced, dissolved at 50° C. for 3 hours in 0.5 ml of water+0.5 ml of Solvable (Amersham), and then analyzed by scintillation spectrometry in 10 ml of Atom light (Amersham) mixture. Protein content was measured by the method of Lowry, et al. (1951, J. Biol. Chem. 193:265-275).
FIG. 1 depicts the structures of certain monoterpenes.
The degree of isoprenylation was evaluated by the amount of labeled protein present in the 21-26 kDa range, as evidenced by fluorography.

[1] = tested on: CoQ9 and cholesterol synthesis; experiment: Mevalonate metabolism: CoQ9 and cholesterol synthesis in NIH3T3 cells; format: cell-based, mouse; details: for activity at 1000 µM: Mus musculus, NIH3T3, 3 h, average of four experiments ± SD
Procedure: Analysis of Mevalonate Metabolism. NIH3T3 cells were grown in Dulbecco's modified Eagle's medium supplemented with 10% calf serum. […] The cells were then trypsinized, washed and resuspended in phosphate-buffered saline. The protein concentrations were determined using a bicinchoninic acid protein assay (Shihabi, et al, Ann. Clin. Lab. Sci. 18:235-239, 1988). Samples containing equal amount of protein were spotted on TLC plates with or without acetone extraction (Maziere, et al, J. Biochem. Biophys. Methods 14:267-272, 1987.) The TLC plates were developed with hexane/diethyl ether/acetic acid (70:30:2, v/v) (Maziere, et al, Supra). Dry plates were analyzed for radioactivity using a phosphorimager (Molecular Dynamics).
Labeling Cells with [^14 C(U)] Tyrosine. NIH3T3 cells were treated with 30 μM lovastatin for 18 hours and then incubated in fresh tyrosine deficient minimum essential medium (supplemented with 10% dialyzed fetal bovine serum) containing 400 μM mevalonic acid lactone (Sigma) and 14 μCi/ml [^14 C(U)] tyrosine (500 mCi/mmol) for 3 hours in the absence or presence of 1 mM perillyl alcohol. Cells were harvested and lipids were analyzed as described above.
HPLC Analysis of Unsaponifiable Lipids. Cells were labeled with [2-^14 C] mevalonolactone as described above and then were saponified as described by Popjak et al, J. Lipid Res, 26:831-841, 1985. Unsaponifiable lipids were extracted with petroleum ether, dried and dissolved in chloroform methanol (1:1, v/v). Reverse phase HPLC using a Bio-Rad ODS-5S (25 cm×4 mm) column fitted with a Sigma hypersil ODS guard column was run isocratically with methanol/acetonitrile/water (72.5:22.5:5, v/v) at a flow rate of 0.8 ml/min. The effluent was monitored at 210 nm, the fractions were collected, and radioactivities were determined with a Beckman LS 6000IC Scintillation Counter.

HT29 cells = experiment: Protein isoprenylation in HT29 cells; format: cell-based, human
rat mammary carcinoma = experiment: Comparison of dietary perillyl alcohol and perillic acid methyl ester as inducers of rat mammary carcinoma regression; format: in vivo, Wistar-Furth rat; details: for no regression (tumors) / no response / partial regression >1/2 original diameter (%) / partial regression >1/2 original diameter (tumors) / small regression response / some growth of tumor: 6 weeks
Procedure: Inbred female Wistar-Furth rats were given 50 mg/kg DMBA at 50-55 days of age. Upon development of a mammary tumor with the largest diameter≥10 mm, the rat was assigned to 0.5% perillic acid methyl ester diet and fed ad libitum. The 0.5% perillic acid methyl ester diet (weight compound/weight ground Teklad rat/mouse 4% meal/chow) was prepared fresh every 7-10 days. Fresh diet was given to rats daily. All rats were weighed and palpated weekly. The study was terminated at 6 weeks after initial diet administration. The following tumor regression data was acquired:
We compared the effects of PAME and POH in terms of their ability to regress rat mammary carcinomas. Table 8 records our comparison. In summary, a 0.5% PAME diet was effective, while a 0.5% POH diet was only 10% effective. Diets of 2% POH were roughly 64-70% effective. While 2% POH is tolerated by a mammal, on a practical level PAME is preferred because a lower dose is sufficient.

human cancer cell lines = experiment: Growth of human cancer cell lines (NCI Developmental Therapeutics Program, FIG. 5); format: cell-based; details: various concentrations
Procedure: Various concentrations of perillyl alcohol caused the regression of a number of human cancer cell lines. FIG. 5 is a set of diagrams showing the effects of perillyl alcohol on different cancer cell lines. These experiments were conducted by the National Cancer Institute Developmental Therapeutics Program.

[2] = 0.5% POH diet, first comparison
[3] = 1.0% POH diet, first comparison
[4] = 1.5% POH diet, first comparison
[5] = 2.0% POH diet, first comparison
[6] = 2.0% POH diet, second comparison

C=C(C)[C@@H]1CC=C(CO)CC1 [perillyl alcohol]
ability to inhibit isoprenylation within test panel (21-26 kDa proteins; 1 mM, 21-26 kDa range): greatest ability to inhibit isoprenylation | inhibition of isoprenylation in all cases examined (21-26 kDa proteins; all cell types examined): inhibition of isoprenylation | CoQ9 labeled from [14C(U)] tyrosine ([1]; 1 mM perillyl alcohol): greatly reduced | activity at 1000 µM ([1]; 1 mM perillyl alcohol, read-out: Cholesterol + Lathosterol synthesis (% of Control)): 107 ± 16.5% | activity at 1000 µM ([1]; 1 mM perillyl alcohol, read-out: Cholesterol synthesis (% of Control)): 26.7 ± 4.7% | activity at 1000 µM ([1]; 1 mM perillyl alcohol, read-out: CoQ9 synthesis (% of Control)): 14.1 ± 4.6% | activity at 1000 µM ([1]; 1 mM perillyl alcohol, read-out: Lathosterol synthesis (% of Control)): 427 ± 130% | recovery of labeled CoQ9 ([1]; cold control medium up to 6 hours post-labeling): labeled CoQ9 could not be observed | block of cholesterol synthesis on continued exposure ([1]; continually grown in 1 mM perillyl alcohol): maintained the block of cholesterol synthesis | conversion of labeled cholesterol back to lathosterol ([1]; reincubated in 1 mM perillyl alcohol after control medium): did not convert labeled cholesterol back to labeled lathosterol | neutral lipid metabolism changes in treated cells ([1]; spot X = CoQ9, Y = cholesterol, Z = lathosterol): inhibition of two spots (X and Y) and the increased accumulation of a third spot (Z) | neutral lipid changes after [14C]squalene labeling ([1]; spot Y = cholesterol, spot Z = lathosterol): inhibition of spot Y and the accumulation of spot Z | reversibility of block of cholesterol synthesis ([1]; switched to control medium, 3 hour chase): Lathosterol was observed to be converted to cholesterol | differential isoprenylation in HT29 (HT29 cells): differential isoprenylation | no regression (tumors) (rat mammary carcinoma; [2]): 18/20 | no response (rat mammary carcinoma; [2]): 1/20 | partial regression >1/2 original diameter (%) (rat mammary carcinoma; [2]): 10% | partial regression >1/2 original diameter (tumors) (rat mammary carcinoma; [2]): 2/20 | small regression response (rat mammary carcinoma; [2]): 2/20 | some growth of tumor (rat mammary carcinoma; [2]): 15/20 | no regression (tumors) (rat mammary carcinoma; [3]): 15/20 | no response (rat mammary carcinoma; [3]): 2/20 | partial regression >1/2 original diameter (%) (rat mammary carcinoma; [3]): 25% | partial regression >1/2 original diameter (tumors) (rat mammary carcinoma; [3]): 5/20 | small regression response (rat mammary carcinoma; [3]): 2/20 | some growth of tumor (rat mammary carcinoma; [3]): 11/20 | no regression (tumors) (rat mammary carcinoma; [4]): 15/21 | no response (rat mammary carcinoma; [4]): 7/21 | partial regression >1/2 original diameter (%) (rat mammary carcinoma; [4]): 29% | partial regression >1/2 original diameter (tumors) (rat mammary carcinoma; [4]): 6/21 | small regression response (rat mammary carcinoma; [4]): 7/21 | some growth of tumor (rat mammary carcinoma; [4]): 4/21 | no regression (tumors) (rat mammary carcinoma; [5]): 6/20 | no response (rat mammary carcinoma; [5]): 1/20 | partial regression >1/2 original diameter (%) (rat mammary carcinoma; [5]): 70% | partial regression >1/2 original diameter (tumors) (rat mammary carcinoma; [5]): 14/20 | small regression response (rat mammary carcinoma; [5]): 2/20 | some growth of tumor (rat mammary carcinoma; [5]): 3/20 | no regression (tumors) (rat mammary carcinoma; [6]): 4/11 | no response (rat mammary carcinoma; [6]): 2/11 | partial regression >1/2 original diameter (%) (rat mammary carcinoma; [6]): 64% | partial regression >1/2 original diameter (tumors) (rat mammary carcinoma; [6]): 7/11 | small regression response (rat mammary carcinoma; [6]): 1/11 | some growth of tumor (rat mammary carcinoma; [6]): 1/11 | effectiveness of diet (%) (rat mammary carcinoma; 2% POH diets): 64-70% | weight loss (rat mammary carcinoma; rats fed PAME or POH diet): did experience weight loss | regression rate (rat mammary carcinoma; rats fed a 1% diet): 55% | effect on human cancer cell growth (human cancer cell lines): inhibited cancer cell growth
